Test results taken from PubChem BioAssay (NCI).
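Dose response: 5 concentrations. Exposure: 48 h. Format: 96-well plates. Endpoint: linear interpolation; highest concentration if not reached. TGI marks complete inhibition of growth.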

What was measured:
Assay in all cases: NCI anticancer screen, dose series, 48 h
HL-60(TB) leukemia = test system: HL-60(TB) leukemia
SF-539 CNS = test system: SF-539 CNS
CCRF-CEM leukemia = test system: CCRF-CEM leukemia
LOX IMVI melanoma = test system: LOX IMVI melanoma
MDA-MB-231 breast = test system: MDA-MB-231 breast
CAKI-1 renal = test system: CAKI-1 renal
HOP-92 NSCLC = test system: HOP-92 NSCLC
A549 NSCLC = test system: A549 NSCLC
DU-145 prostate = test system: DU-145 prostate
U251 CNS = test system: U251 CNS
MCF7 breast = test system: MCF7 breast
K-562 leukemia = test system: K-562 leukemia
KM12 colon = test system: KM12 colon
MDA-MB-435 = test system: MDA-MB-435
SR leukemia = test system: SR leukemia
UACC-257 melanoma = test system: UACC-257 melanoma
TK-10 renal = test system: TK-10 renal
M14 melanoma = test system: M14 melanoma
HS 578T breast = test system: HS 578T breast
SF-268 CNS = test system: SF-268 CNS
SW-620 colon = test system: SW-620 colon
T-47D breast = test system: T-47D breast
SN12C renal = test system: SN12C renal
RXF 393 renal = test system: RXF 393 renal
PC-3 prostate = test system: PC-3 prostate
SF-295 CNS = test system: SF-295 CNS
A498 renal = test system: A498 renal
SK-MEL-2 melanoma = test system: SK-MEL-2 melanoma
OVCAR-3 ovarian = test system: OVCAR-3 ovarian
HT29 colon = test system: HT29 colon
NCI/ADR-RES ovarian = test system: NCI/ADR-RES ovarian
OVCAR-8 ovarian = test system: OVCAR-8 ovarian
HOP-62 NSCLC = test system: HOP-62 NSCLC
UACC-62 melanoma = test system: UACC-62 melanoma
SNB-19 CNS = test system: SNB-19 CNS
HCT-15 colon = test system: HCT-15 colon
SNB-75 CNS = test system: SNB-75 CNS
HCC-2998 colon = test system: HCC-2998 colon
COLO 205 colon = test system: COLO 205 colon
OVCAR-5 ovarian = test system: OVCAR-5 ovarian
OVCAR-4 ovarian = test system: OVCAR-4 ovarian
EKVX NSCLC = test system: EKVX NSCLC
NCI-H226 lung = test system: NCI-H226 lung
NCI-H522 lung = test system: NCI-H522 lung
UO-31 renal = test system: UO-31 renal
786-0 renal = test system: 786-0 renal
ACHN renal = test system: ACHN renal
MALME-3M melanoma = test system: MALME-3M melanoma
SK-OV-3 ovarian = test system: SK-OV-3 ovarian
SK-MEL-28 melanoma = test system: SK-MEL-28 melanoma
BT-549 breast = test system: BT-549 breast
MOLT-4 leukemia = test system: MOLT-4 leukemia
HCT-116 colon = test system: HCT-116 colon
SK-MEL-5 melanoma = test system: SK-MEL-5 melanoma
MDA-N = test system: MDA-N
NCI-H460 lung = test system: NCI-H460 lung
NCI-H23 lung = test system: NCI-H23 lung
RPMI-8226 leukemia = test system: RPMI-8226 leukemia
IGROV1 ovarian = test system: IGROV1 ovarian

## COc1ccc(-c2[nH]c3c4c(nc5c(c24)C(=O)CC(C)(C)C5)CC(C)(C)C3)cc1
HL-60(TB) leukemia
  TGI: > 100 µM
SF-539 CNS
  TGI: > 100 µM
CCRF-CEM leukemia
  TGI: > 100 µM
LOX IMVI melanoma
  TGI: > 100 µM
MDA-MB-231 breast
  TGI: > 100 µM
CAKI-1 renal
  TGI: > 100 µM
HOP-92 NSCLC
  TGI: > 100 µM
A549 NSCLC
  TGI: > 100 µM
DU-145 prostate
  TGI: > 100 µM
U251 CNS
  TGI: > 100 µM
MCF7 breast
  TGI: > 100 µM
K-562 leukemia
  TGI: > 100 µM
KM12 colon
  TGI: > 100 µM
MDA-MB-435
  TGI: > 100 µM
SR leukemia
  TGI: 92.1 µM
UACC-257 melanoma
  TGI: > 100 µM
TK-10 renal
  TGI: > 100 µM
M14 melanoma
  TGI: > 100 µM
HS 578T breast
  TGI: > 100 µM
SF-268 CNS
  TGI: > 100 µM
SW-620 colon
  TGI: > 100 µM
T-47D breast
  TGI: > 100 µM
SN12C renal
  TGI: > 100 µM
RXF 393 renal
  TGI: > 100 µM
PC-3 prostate
  TGI: 92.6 µM
SF-295 CNS
  TGI: > 100 µM
A498 renal
  TGI: > 100 µM
SK-MEL-2 melanoma
  TGI: > 100 µM
OVCAR-3 ovarian
  TGI: > 100 µM
HT29 colon
  TGI: > 100 µM
NCI/ADR-RES ovarian
  TGI: > 100 µM
OVCAR-8 ovarian
  TGI: > 100 µM
HOP-62 NSCLC
  TGI: > 100 µM
UACC-62 melanoma
  TGI: > 100 µM
SNB-19 CNS
  TGI: > 100 µM
HCT-15 colon
  TGI: > 100 µM
SNB-75 CNS
  TGI: > 100 µM
HCC-2998 colon
  TGI: > 100 µM
COLO 205 colon
  TGI: > 100 µM
OVCAR-5 ovarian
  TGI: > 100 µM
OVCAR-4 ovarian
  TGI: > 100 µM
EKVX NSCLC
  TGI: > 100 µM
NCI-H226 lung
  TGI: > 100 µM
NCI-H522 lung
  TGI: > 100 µM
UO-31 renal
  TGI: > 100 µM
786-0 renal
  TGI: > 100 µM
ACHN renal
  TGI: > 100 µM
MALME-3M melanoma
  TGI: > 100 µM
SK-OV-3 ovarian
  TGI: > 100 µM
SK-MEL-28 melanoma
  TGI: > 100 µM
BT-549 breast
  TGI: > 100 µM
MOLT-4 leukemia
  TGI: 94 µM
HCT-116 colon
  TGI: > 100 µM
SK-MEL-5 melanoma
  TGI: > 100 µM
MDA-N
  TGI: > 100 µM
NCI-H460 lung
  TGI: > 100 µM
NCI-H23 lung
  TGI: > 100 µM

## S=C(N/N=C(/c1ccccc1)c1ccccn1)N(Cc1ccccn1)Cc1ccccn1
HL-60(TB) leukemia
  TGI: > 100 µM
RPMI-8226 leukemia
  TGI: 3.38 µM
SF-539 CNS
  TGI: 3.45 µM
CCRF-CEM leukemia
  TGI: > 100 µM
LOX IMVI melanoma
  TGI: 1.74 µM
MDA-MB-231 breast
  TGI: 2.72 µM
CAKI-1 renal
  TGI: 1.42 µM
HOP-92 NSCLC
  TGI: 1.45 µM
A549 NSCLC
  TGI: 2.01 µM
DU-145 prostate
  TGI: 4.42 µM
MCF7 breast
  TGI: 5.02 µM
K-562 leukemia
  TGI: > 100 µM
KM12 colon
  TGI: 2.31 µM
MDA-MB-435
  TGI: 3.56 µM
SR leukemia
  TGI: 43.5 µM
UACC-257 melanoma
  TGI: 2.42 µM
TK-10 renal
  TGI: 1.58 µM
M14 melanoma
  TGI: 2.97 µM
HS 578T breast
  TGI: > 29.8 µM
SF-268 CNS
  TGI: 4.84 µM
SW-620 colon
  TGI: 7.72 µM
IGROV1 ovarian
  TGI: 2.03 µM
T-47D breast
  TGI: 2.82 µM
SN12C renal
  TGI: 3.47 µM
RXF 393 renal
  TGI: 2.74 µM
PC-3 prostate
  TGI: 1.78 µM
SF-295 CNS
  TGI: 1.82 µM
SK-MEL-2 melanoma
  TGI: 3.04 µM
OVCAR-3 ovarian
  TGI: 1.71 µM
HT29 colon
  TGI: 2.09 µM
NCI/ADR-RES ovarian
  TGI: 1.44 µM
OVCAR-8 ovarian
  TGI: 1.13 µM
HOP-62 NSCLC
  TGI: 3.17 µM
UACC-62 melanoma
  TGI: 2.21 µM
SNB-19 CNS
  TGI: 2.26 µM
SNB-75 CNS
  TGI: 2.24 µM
COLO 205 colon
  TGI: 2.02 µM
OVCAR-5 ovarian
  TGI: 3.37 µM
OVCAR-4 ovarian
  TGI: 1.73 µM
EKVX NSCLC
  TGI: 1.7 µM
NCI-H226 lung
  TGI: 0.433 µM
NCI-H522 lung
  TGI: 4.5 µM
UO-31 renal
  TGI: 1.65 µM
786-0 renal
  TGI: 2.04 µM
ACHN renal
  TGI: 0.74 µM
MALME-3M melanoma
  TGI: 2.45 µM
SK-OV-3 ovarian
  TGI: 1.66 µM
SK-MEL-28 melanoma
  TGI: 5.45 µM
BT-549 breast
  TGI: 1.51 µM
MOLT-4 leukemia
  TGI: 16.1 µM
HCT-116 colon
  TGI: 1.59 µM
SK-MEL-5 melanoma
  TGI: 3.12 µM
MDA-N
  TGI: 7.62 µM
NCI-H460 lung
  TGI: 4.7 µM
NCI-H23 lung
  TGI: 1.57 µM
